Measurements: patent publication US6821980B1, “Substituted 5-benzyl-2,4-diaminopyrimidines” (Basilea Pharmaceutica AG, priority 1999, dated 2004)
Converted amounts (≈) assume the structure as drawn. Where two headings read alike, the source gives them in different places.

How the values were obtained:
[1] = system: Staphylococcus aureus 101; experiment: MIC against Staphylococcus aureus 101; assay type: cell-based; conditions: Staphylococcus aureus 101, MRSA- and trimethoprim-resistant, clinical isolate, read-out: MIC Sa101
[2] = target: T1, purified DHFR of strain Sp1/1 of Streptococcus pneumoniae (Streptococcus pneumoniae serotype 4, UniProt Q54801); assay type: biochemical; conditions: IC50 against purified DHFR of strain Sp1/1
T1 sequence (Q54801 1-168 I100L): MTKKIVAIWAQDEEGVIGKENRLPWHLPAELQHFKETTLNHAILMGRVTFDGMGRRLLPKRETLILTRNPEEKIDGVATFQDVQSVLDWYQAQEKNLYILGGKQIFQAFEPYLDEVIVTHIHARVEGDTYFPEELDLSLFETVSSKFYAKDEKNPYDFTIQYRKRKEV

[3] = system: Streptococcus pneumoniae 1/1; experiment: MIC against Streptococcus pneumoniae 1/1; assay type: cell-based; conditions: Streptococcus pneumoniae 1/1, trimethoprim- and penicillin-resistant, serotype 6, clinical isolate, read-out: MIC Sp1/1
[4] = target: purified DHFR of strain 157/4696 of Staphylococcus aureus (Staphylococcus aureus, UniProt P13955); experiment: biochemical
Chain of purified DHFR of strain 157/4696 of Staphylococcus aureus (P13955 whole entry): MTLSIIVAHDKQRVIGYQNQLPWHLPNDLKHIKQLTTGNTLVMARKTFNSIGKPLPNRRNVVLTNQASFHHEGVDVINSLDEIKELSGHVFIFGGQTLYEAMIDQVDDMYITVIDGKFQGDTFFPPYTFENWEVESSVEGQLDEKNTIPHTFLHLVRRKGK

| SMILES | MIC ([1]; Table 2) [µg/mL] | IC50 ([2]; Table 2) [nM] | MIC ([3]; Table 2) [µg/mL] | IC50 [4] [nM] | MIC ([1]; Table 1) [µg/mL] | IC50 ([2]; Table 1) [nM] | MIC ([3]; Table 1) [µg/mL] |
| --- | --- | --- | --- | --- | --- | --- | --- |
| CCOc1cc(Cc2cnc(N)nc2N)cc(OS(=O)(=O)CC(C)C)c1-c1cccc(N)c1 [Example 14-h, 2-Methyl-propane-1-sulphonic acid 3′-amino-4-(2,4-diamino-Dyrimidin-5-ylmethyl)-6-ethoxy-biphenyl-2-yl ester] | 2 (≈ 4.24 µM) | 4.8 | 0.5 (≈ 1.06 µM) | 320 | – | – | – |
| CCOc1cc(Cc2cnc(N)nc2N)cc(OS(=O)(=O)CC(C)(C)C)c1-c1cccc(N)c1 [Example 14-i, 2,2-Dimethyl-propane-1-sulphonic acid 3′-amino-4-(2,4-diamino-pyrimidin-5-ylmethyl)-6-ethoxy-biphenyl-2-yl ester] | 8 (≈ 16.5 µM) | 5.4 | 0.5 (≈ 1.03 µM) | 220 | – | – | – |
| CCOc1cc(Cc2cnc(N)nc2N)cc(OS(=O)(=O)C(C)C)c1-c1cccc(N)c1 [Example 14c, Propane-2-sulphonic acid 3′-amino-4-(2,4-diamino-pyrimidin-5-ylmethyl)-6-ethoxy-biphenyl-2-yl ester] | – | – | – | 61 | 1 (≈ 2.19 µM) | 20 | 1 (≈ 2.19 µM) |
| CCOc1cc(Cc2cnc(N)nc2N)cc(OS(=O)(=O)C(C)CC)c1-c1cccc(N)c1 (stereo not shown) [Example 14g, Butane-2-sulphonic acid 3′-amino-4-(2,4-diamino-pvrimidin-5-ylmethyl)-6-ethoxy-biphenyl-2-yl ester] | – | – | – | 30 | 1 (≈ 2.12 µM) | 3.7 | 1 (≈ 2.12 µM) |
| CCOc1cc(Cc2cnc(N)nc2N)cc(OS(C)(=O)=O)c1-c1ccc(O)cc1 [Example 15-a, Methanesulphonic acid 4-(2,4-diamino-pyrimidin-5-ylmethyl)-6-ethoxy-4′-hydroxy-biphenyl-2-yl ester] | 8 (≈ 18.6 µM) | 32 | 4 (≈ 9.29 µM) | 550 | – | – | – |
| CCOc1cc(Cc2cnc(N)nc2N)cc(OS(=O)(=O)CC)c1-c1ccc(O)cc1 [Example 15-b, Ethanesulphonic acid 4-(2,4-diamino-pyrimidin-5-ylmethyl)-6-ethoxy-4′-hydroxy-biphenyl-2-yl ester] | 4 (≈ 9 µM) | 23 | 2 (≈ 4.5 µM) | 180 | – | – | – |
| CCOc1cc(Cc2cnc(N)nc2N)cc(OS(=O)(=O)C(C)C)c1-c1ccc(O)cc1 [Example 15-c, Propane-2-sulphonic acid 4-(2,4-diamino-pyrimidin-5-ylmethyl)-6-ethoxy-4′-hydroxy-biphenyl-2-yl ester] | 1 (≈ 2.18 µM) | 12 | 1 (≈ 2.18 µM) | 64 | – | – | – |
| CCCS(=O)(=O)Oc1cc(Cc2cnc(N)nc2N)cc(OCC)c1-c1ccc(O)cc1 [Example 15-d, Propane-1-sulphonic acid 4-(2,4-diamino-primidin-5-ylmethyl)-6-ethoxy-4′-hydroxy-biphenyl-2-yl ester] | 2 (≈ 4.36 µM) | 18 | 1 (≈ 2.18 µM) | 62 | – | – | – |
| CCOc1cc(Cc2cnc(N)nc2N)cc(OS(=O)(=O)C2CC2)c1-c1ccc(O)cc1 [Example 15-e, Cylopropanesulphonic acid 4-(2,4-diamino-pyrimidin-5-ylmethyl)-6-ethoxy-4′-hydroxn-biphenyl-2-yl ester] | 8 (≈ 17.5 µM) | 12 | 1 (≈ 2.19 µM) | 94 | – | – | – |
| CCOc1cc(Cc2cnc(N)nc2N)cc(OS(=O)(=O)CC(C)C)c1-c1ccc(O)cc1 [Example 15-f, 2-Methyl-propane-1-sulphonic acid 4-(2,4-diamino-pyrimidin-5-ylmethyl)-6-ethoxy-4′-hydroxy-biphenyl-2-yl ester] | 4 (≈ 8.46 µM) | 6.7 | 0.5 (≈ 1.06 µM) | 380 | – | – | – |
| CCOc1cc(Cc2cnc(N)nc2N)cc(OS(=O)(=O)C(C)CC)c1-c1ccc(O)cc1 (stereo not shown) [Example 15-g, Butane-2-sulphonic acid 4-(2,4-diamino-Dyrimidin-5-ylmethyl)-6-ethoxy-4′-hydroxy-biphenyl-2-yl ester] | 2 (≈ 4.23 µM) | 25 | 0.5 (≈ 1.06 µM) | 39 | – | – | – |
| CCOc1cc(Cc2cnc(N)nc2N)cc(OS(=O)(=O)CC(C)(C)C)c1-c1ccc(O)cc1 [Example 15-h, 2,2-Dimethyl-propane-1-sulphonic acid 4-(2,4-diamino-pyrimidin-5-ylmethyl)-6-ethoxy-4′-hydroxa-biphenyl-2-yl ester] | 4 (≈ 8.22 µM) | 4.1 | 0.25 (≈ 0.514 µM) | 920 | – | – | – |
| CCOc1cc(Cc2cnc(N)nc2N)cc(OS(=O)C(C)(C)C)c1-c1ccc(O)cc1 (stereo not shown) [Example 15-i, 2-Methyl-propane-2-sulphinic acid 4-(2,4-diamino-pyrimidin-5-ylmethyl)-6-ethoxy-4′-hydroxy-biphenyl-2-yl ester] | 2 (≈ 4.38 µM) | 22 | 4 (≈ 8.76 µM) | 81 | – | – | – |
| CCOc1cc(Cc2cnc(N)nc2N)cc(OS(=O)(=O)c2ccc(OC)c(F)c2)c1-c1ccc(O)cc1 [Example 15-j, 3-Fluoro-4-methoxy-benzenesulphonic acid 4-(2,4-diamino-pyrimidin-5-ylmethyl)-6-ethoxy-4′-hydroxy-biphenyl-2-yl ester] | 8 (≈ 14.8 µM) | 1.7 | 1 (≈ 1.85 µM) | 550 | – | – | – |
| CCOc1cc(Cc2cnc(N)nc2N)cc(OS(C)(=O)=O)c1-c1ccc(OC)cc1 [Example 16-a, Methanesulphonic acid 4-(2,4-diamino-pyrimidin-5-ylmethyl)-6-ethoxy-4′-methoxy-biphenyl-2-yl ester] | 4 (≈ 9 µM) | 21 | 2 (≈ 4.5 µM) | 310 | – | – | – |
| CCOc1cc(Cc2cnc(N)nc2N)cc(OS(=O)(=O)CC)c1-c1ccc(OC)cc1 [Example 16-b, Ethanesulphonic acid 4-(2,4-diamino-pyrimidin-5-ylmethyl)-6-ethoxy-4′-methoxy-biphenyl-2-yl ester] | 2 (≈ 4.36 µM) | 39 | 2 (≈ 4.36 µM) | 100 | – | – | – |
| CCOc1cc(Cc2cnc(N)nc2N)cc(OS(=O)(=O)C(C)C)c1-c1ccc(OC)cc1 [Example 16-c, Propane-2-sulphonic acid 4-(2,4-diamino-Ryimidin-5-ylmethyl)-6-ethoxy-4′-methoxy-biphenyl-2-yl ester] | 2 (≈ 4.23 µM) | 18 | 2 (≈ 4.23 µM) | 260 | – | – | – |
| CCOc1cc(Cc2cnc(N)nc2N)cc(OS(C)(=O)=O)c1-c1ccc2c(c1)OCO2 [Example 17-a, Methanesulphonic acid 2-benzof[1,3]dioxol-5-yl-5-(2,4-diamino-Ryrimidin-5-ylmethyl)-3-ethoxy-phenyl ester] | 4 (≈ 8.72 µM) | 38 | 2 (≈ 4.36 µM) | 600 | – | – | – |
| CCOc1cc(Cc2cnc(N)nc2N)cc(OS(=O)(=O)CC)c1-c1ccc2c(c1)OCO2 [Example 17-b, Ethanesulphonic acid 2-benzo[1.3]dioxol-5-yl-5-(2,4-diamino-Iyrimidin-5-ylmethyl)-3-ethoxy-phenyl ester] | 4 (≈ 8.47 µM) | 38 | 2 (≈ 4.23 µM) | 370 | – | – | – |
| CCOc1cc(Cc2cnc(N)nc2N)cc(OS(=O)(=O)C(C)C)c1-c1ccc2c(c1)OCO2 [Example 17-c, Propane-2-sulphonic acid 2-benzo[1.3]dioxol-5-yl-5-(2,4-diamino-pyrimidin-5-ylmethyl)-3-ethoxy-phenyl ester] | 2 (≈ 4.11 µM) | 33 | 2 (≈ 4.11 µM) | 180 | – | – | – |
| CCCS(=O)(=O)Oc1cc(Cc2cnc(N)nc2N)cc(OCC)c1-c1ccc2c(c1)OCO2 [Example 17-d, Propane-1-sulphonic acid 2-benzo[1.3]dioxol-5-yl-5-(2,4-diamino-pyrimidin-5-ylmethyl)-3-ethoxy-phenyl ester] | 4 (≈ 8.22 µM) | 14 | 1 (≈ 2.06 µM) | 150 | – | – | – |
| CCOc1cc(Cc2cnc(N)nc2N)cc(OS(=O)(=O)C(C)C)c1-c1ccc(N)cc1 [Example 18, Propane-2-sulphonic acid 4′-amino-4-(2,4-diamino-pyrimidin-5-ylmethyl)-6-ethoxy-biphenyl-2-yl ester] | – | – | – | 39 | 2 (≈ 4.37 µM) | 5.6 | 1 (≈ 2.19 µM) |
| CCOc1cc(Cc2cnc(N)nc2N)cc(OS(=O)(=O)N(C)C)c1-c1cccc(N)c1 [Example 19-a, Dimethyl-sulphamic acid 3′-amino-4-(2,4-diamino-pyrimidin-5-ylmethyl)-6-ethoxy-biphenyl-2-yl ester] | 1 (≈ 2.18 µM) | 6.2 | 1 (≈ 2.18 µM) | 85 | – | – | – |
| CCOc1cc(Cc2cnc(N)nc2N)cc(OS(=O)(=O)N2CCCCC2)c1-c1cccc(N)c1 [Example 19-b, Piperidine-1-sulphonic acid 3′-amino-4-(2,4-diamino-pyrimidin-5-ylmethyl)-6-ethoxy-biphenyl-2-yl ester] | 1 (≈ 2.01 µM) | 2.4 | 0.5 (≈ 1 µM) | 130 | – | – | – |
| CCOc1cc(Cc2cnc(N)nc2N)cc(OS(=O)(=O)N2CCCC2)c1-c1cccc(N)c1 [Example 19-c, Pyrrolidine-1-sulphonic acid 3′-amino-4-(2,4-diamino-pyrimidin-5-vlmethyl)-6-ethoxy-biphenyl-2-yl ester] | 2 (≈ 4.13 µM) | 19 | 1 (≈ 2.06 µM) | 66 | – | – | – |
